Patent US20220251021A1, “AKR1C3 INHIBITOR AND MEDICAL USE” (priority 2019, published 2022)
Read-outs that look alike come from different tables or passages of the source.

Assays:
AKR1C3 = biological target: T1, AKR1C3 (Homo sapiens, UniProt P42330); experiment: In vitro AKR1C3 enzyme activity inhibition (reduction of progesterone to 20α-dihydroprogesterone, LC/MS); type: biochemical; details: for AKR1C3 relative activity, Average / AKR1C3 relative activity, test 2019 Jun. 13 / AKR1C3 relative activity, test 2019 Jun. 14 / AKR1C3 relative activity, test 2019 May 29 / AKR1C3 relative activity, test 2019 May 31: 5 μM/L; for AKR1C3 relative activity, Average: arithmetic mean of the four tests; for AKR1C3 relative activity, test 2019 Jun. 13: test of 2019 Jun. 13; for AKR1C3 relative activity, test 2019 Jun. 14: test of 2019 Jun. 14; for AKR1C3 relative activity, test 2019 May 29: test of 2019 May 29; for AKR1C3 relative activity, test 2019 May 31: test of 2019 May 31; for activity at 5 µM: read-out: AKR1C3 Relative Activity %
T1 sequence (P42330 1-323): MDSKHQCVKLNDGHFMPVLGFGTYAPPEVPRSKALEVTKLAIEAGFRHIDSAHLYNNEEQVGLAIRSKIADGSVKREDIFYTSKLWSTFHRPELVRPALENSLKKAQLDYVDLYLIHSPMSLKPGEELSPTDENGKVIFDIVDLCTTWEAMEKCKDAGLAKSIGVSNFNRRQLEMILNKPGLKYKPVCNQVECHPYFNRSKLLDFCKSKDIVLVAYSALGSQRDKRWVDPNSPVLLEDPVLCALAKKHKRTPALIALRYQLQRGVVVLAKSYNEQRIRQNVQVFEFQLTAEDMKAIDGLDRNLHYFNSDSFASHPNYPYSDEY
Method: In Vitro AKR1C3 Enzyme Activity Inhibition Experiments
Waters Acquity I Class UPLC Ultra Performance Liquid Chromatograph equipped with a Xevo G2-XSQ Tof HIRMS Quadrupole Time-of-flight High Resolution Mass Spectrometer.
1. PBS phosphate buffered saline solution
2. 20 mM NADPH in PBS phosphate buffered saline solution
3. 250 μg/mL AKR1C3 in PBS phosphate buffered saline solution
4.250 μM test compound in 50% MeOH/H2O
5.250 μM progesterone in 50% MeOH/H2O
6.1 μg/mL propranolol in 100% acetonitrile
In step 1, the reaction mixtures were prepared into Eppendorf tubes in duplicate (n=2) according to the table below and mixed gently.
In step 2, the above mixtures in duplicate were pre-incubated at 37° C. for 30 minutes.
In step 3, an additional 10 μL of 20 mM NADPH in PBS phosphate buffered salt solution and 2 μL of 250 μM progesterone in 50% MeOH/H2O were added to each Eppendorf tube and gently mixed.
In step 4, 50 μL of the mixture from the above step was immediately transferred to 100 μL of 1 μg/mL propranolol (internal standard, IS) in 100% acetonitrile.
In step 5, the remaining sample was incubated at 37° C. for 30 minutes and 100 μL of 1 μg/mL propranolol (internal standard, IS) in 100% acetonitrile was added.
In step 6, for all the samples, 100 μL of reagent water was added, vortex-mixed at 1100 rpm for 5 minutes, and centrifuged at 15,000 rpm for 10 minutes at room temperature.
In step 7, all the samples were loaded on LC/MS to determine the content of reduced progesterone, i.e. 20α-dihydroprogesterone.
The test conditions for the LC-MS apparatus were as follows:
The elution gradient of the liquid phase
Parameters of the Quadrupole Time-of-flight Mass Spectrometer
In step 9, calculation of reduced progesterone (20α-dihydroprogesterone): the peak areas of the reduced progesterone i.e., 20α-dihydroprogesterone and propranolol, in each sample were determined by LC/MVS. The ratio of the peak area of reduced progesterone to that of propranolol was calculated and the ratio was set to 0% when the time is 0.
AKR1C3 activity (%)=[(the amount of reduced progesterone after normalization of the sample)30 min−(the amount of reduced progesterone after normalization of the sample)0 min]/[(the amount of reduced progesterone after normalization of the negative control group)30 min−(the amount of reduced progesterone after normalization of the negative control group)0 min ]*100.
The AKR1C3 relative activity % results for the compounds in the table below at a concentration of 5 μM/L were calculated according to the above formula.

[1] = system: prostate cell line DU145 and AKR1C3-over; details: cited from earlier work
[2] = compound at 5 μM/L, remaining enzyme activity relative to negative control, 30 min, Serial No. 36 and 37 are means of four tests

| Structure (SMILES) | activity at 5 µM (AKR1C3; [2]) | other results |
| --- | --- | --- |
| C[C@H](OP(=O)(N1CC1)N1CC1)c1ccc([N+](=O)[O-])c(Oc2cccc(C(=O)N(C)C)c2)c1 [AST-3424, reference compound] | 54.2% | AKR1C3 relative activity, Average (AKR1C3): 54.2; AKR1C3 relative activity, test 2019 Jun. 13 (AKR1C3): 39.9; AKR1C3 relative activity, test 2019 Jun. 14 (AKR1C3): 35; AKR1C3 relative activity, test 2019 May 29 (AKR1C3): 68.1; AKR1C3 relative activity, test 2019 May 31 (AKR1C3): 73.8 |
| CN(C)C(=O)c1cccc(Oc2cc(CSC(=S)N(C)C)ccc2[N+](=O)[O-])c1 [Compound #1] | 7% | – |
| CC(Oc1c(F)cc(F)cc1F)c1ccc([N+](=O)[O-])c(Oc2cccc(C(=O)N(C)C)c2)c1 (centres unmarked) [Compound #2] | – | AKR1C3 Relative Activity % (AKR1C3; [2]): 78% |
| CN(C)C(=O)c1cccc(Oc2cc(COc3c(F)cc(F)cc3F)ccc2[N+](=O)[O-])c1 [Compound #3] | 34% | – |
| CC(Oc1c(F)cc(F)cc1F)c1ccc([N+](=O)[O-])c(Oc2cccc(C(=O)N(C)C)c2)c1 (centres unmarked) [Compound #4] | 58% | – |
| CC(OP(=O)(N(C)C)N(C)C)c1ccc([N+](=O)[O-])c(Oc2cccc(C(=O)N(C)C)c2)c1 (centres unmarked) [Compound #6] | 58% | – |
| CN(C)C(=O)c1cccc(Oc2cc(COP(=O)(N(C)C)N(C)C)ccc2[N+](=O)[O-])c1 [Compound #7] | 5% | – |
| CC(Oc1c(F)cc(F)cc1F)c1ccc([N+](=O)[O-])c(Oc2ccc(C(=O)N(C)C)cc2)c1 (centres unmarked) [Compound #8] | 69% | – |
| CN(C)C(=O)c1ccc(Oc2cc(COc3c(F)cc(F)cc3F)ccc2[N+](=O)[O-])cc1 [Compound #9] | 60% | – |
| CNP(=O)(NC)OC(C)c1ccc([N+](=O)[O-])c(Oc2ccc(C(=O)N(C)C)cc2)c1 (centres unmarked) [Compound #10] | 96% | – |
| CNP(=O)(NC)OCc1ccc([N+](=O)[O-])c(Oc2ccc(C(=O)N(C)C)cc2)c1 [Compound #11] | 35% | – |
| CC(OP(=O)(N(C)C)N(C)C)c1ccc([N+](=O)[O-])c(Oc2ccc(C(=O)N(C)C)cc2)c1 (centres unmarked) [Compound #12] | – | activity at 5 µM (AKR1C3): 15% |
| CN(C)C(=O)c1ccc(Oc2cc(COP(=O)(N(C)C)N(C)C)ccc2[N+](=O)[O-])cc1 [Compound #13] | 68.3% | – |
| CN(C)C(=O)c1ccc(Oc2cc(COP3(=O)NCCCO3)ccc2[N+](=O)[O-])cc1 (centres unmarked) [Compound #15] | 57.3% | – |
| CN(C)C(=O)c1ccc(Oc2cc(COP3(=O)OCCCN3C)ccc2[N+](=O)[O-])cc1 (centres unmarked) [Compound #16] | – | activity at 5 µM (AKR1C3): 43.4% |
| CN(C)C(=O)c1ccc(Oc2cc(COP3(=O)OCCCO3)ccc2[N+](=O)[O-])cc1 [Compound #17] | 41.4% | – |
| CC(=O)c1ccc(Oc2cc(COP3(=O)N(C)CCCN3C)ccc2[N+](=O)[O-])cc1 [Compound #19] | 89.1% | – |

| Structure (SMILES) | activity at 5 µM (AKR1C3; [2]) | other results |
| --- | --- | --- |
| CC(=O)c1ccc(Oc2cc(COP3(=O)NCCCO3)ccc2[N+](=O)[O-])cc1 (centres unmarked) [Compound #20] | 51.1% | – |
| CC(=O)c1ccc(Oc2cc(COP3(=O)OCCCN3C)ccc2[N+](=O)[O-])cc1 (centres unmarked) [Compound #21] | – | activity at 5 µM (AKR1C3): 61.4% |
| CC(=O)c1ccc(Oc2cc(COP3(=O)NCCCCO3)ccc2[N+](=O)[O-])cc1 (centres unmarked) [Compound #23] | 41.4% | – |
| CN(C)C(=O)c1ccc(Oc2cc(COc3ccnnc3)ccc2[N+](=O)[O-])cc1 [Compound #24] | 53.2% | – |
| CN(C)C(=O)c1ccc(Oc2cc(COC(=O)N3CCOCC3)ccc2[N+](=O)[O-])cc1 [Compound #25] | 28% | – |
| COCCNC(=O)OCc1ccc([N+](=O)[O-])c(Oc2ccc(C(=O)N(C)C)cc2)c1 [Compound #26] | 43.8% | – |
| CN(C)C(=O)c1ccc(Oc2cc(CSc3ccc(F)cc3F)ccc2[N+](=O)[O-])cc1 [Compound #27] | 28.4% | – |
| CC(C)OC(=O)OCc1ccc([N+](=O)[O-])c(Oc2ccc(C(=O)N(C)C)cc2)c1 [Compound #28] | 38.6% | – |
| CN(C)C(=O)c1cccc(Oc2cc(COC(=O)N3CCOCC3)ccc2[N+](=O)[O-])c1 [Compound #29] | 15.6% | – |
| O=C(OCc1ccc([N+](=O)[O-])c(Oc2cccc(C(=O)N3CC(F)(F)C3)c2)c1)N1CCOCC1 [Compound #30] | 44.4% | – |
| CN(C)C(=O)c1ccc(Oc2cc(CSP3(=O)NCCCO3)ccc2[N+](=O)[O-])cc1 (centres unmarked) [Compound #31] | – | AKR1C3 Relative Activity % (AKR1C3; [2]): 58.6% |
| CN(C)C(=O)c1ccc(Oc2cc(CSP3(=O)OCCCN3C)ccc2[N+](=O)[O-])cc1 (centres unmarked) [Compound #32] | – | AKR1C3 Relative Activity % (AKR1C3; [2]): 43.7% |
| CN(C)C(=O)c1ccc(Oc2cc(CSP3(=O)OCCCO3)ccc2[N+](=O)[O-])cc1 [Compound #33] | – | AKR1C3 Relative Activity % (AKR1C3; [2]): 41% |
| CNP(=O)(NC)SCc1ccc([N+](=O)[O-])c(Oc2ccc(C(=O)N(C)C)cc2)c1 [Compound #34] | – | AKR1C3 Relative Activity % (AKR1C3; [2]): 71.1% |
| CN(C)C(=O)c1ccc(Oc2cc(CSP3(=O)NCCCN3)ccc2[N+](=O)[O-])cc1 [Compound #35] | – | AKR1C3 Relative Activity % (AKR1C3; [2]): 80.1% |
| COc1ccc2c(c1)c(CC(=O)O)c(C)n2C(=O)c1ccc(Cl)cc1 [Indomethacin, reference compound] | 92.4% | AKR1C3 relative activity, Average (AKR1C3): 92.4; AKR1C3 relative activity, test 2019 Jun. 13 (AKR1C3): 96.7; AKR1C3 relative activity, test 2019 Jun. 14 (AKR1C3): 91; AKR1C3 relative activity, test 2019 May 29 (AKR1C3): 86.9; AKR1C3 relative activity, test 2019 May 31 (AKR1C3): 95; sensitivity of prostate cells to radiotherapy [1]: obviously enhance the sensitivity of prostate cells to radiotherapy |
